Measurements from PMC4583449, “Characterisation of (R)-2-(2-Fluorobiphenyl-4-yl)-N-(3-Methylpyridin-2-yl)Propanamide as a Dual Fatty Acid Amide Hydrolase: Cyclooxygenase Inhibitor” (PLoS ONE, 2015).
“And” between values parts separate entries of the source, which are not always exact repeats. Identical values can stand only once. Like-named read-outs stand apart in the source and are kept apart here.

What was measured:
ovine COX-1 = biological target: T1, ovine COX-1 (Ovis aries, UniProt P05979); assay: COX-1 inhibition, oxygraphic method (oxygen electrode); assay type: biochemical; conditions: 10 μM arachidonic acid; no preincubation phase; approximate, from initial velocities
T1 construct: purchased Cayman Chemical Co. 60100
T1 sequence (P05979 25-600): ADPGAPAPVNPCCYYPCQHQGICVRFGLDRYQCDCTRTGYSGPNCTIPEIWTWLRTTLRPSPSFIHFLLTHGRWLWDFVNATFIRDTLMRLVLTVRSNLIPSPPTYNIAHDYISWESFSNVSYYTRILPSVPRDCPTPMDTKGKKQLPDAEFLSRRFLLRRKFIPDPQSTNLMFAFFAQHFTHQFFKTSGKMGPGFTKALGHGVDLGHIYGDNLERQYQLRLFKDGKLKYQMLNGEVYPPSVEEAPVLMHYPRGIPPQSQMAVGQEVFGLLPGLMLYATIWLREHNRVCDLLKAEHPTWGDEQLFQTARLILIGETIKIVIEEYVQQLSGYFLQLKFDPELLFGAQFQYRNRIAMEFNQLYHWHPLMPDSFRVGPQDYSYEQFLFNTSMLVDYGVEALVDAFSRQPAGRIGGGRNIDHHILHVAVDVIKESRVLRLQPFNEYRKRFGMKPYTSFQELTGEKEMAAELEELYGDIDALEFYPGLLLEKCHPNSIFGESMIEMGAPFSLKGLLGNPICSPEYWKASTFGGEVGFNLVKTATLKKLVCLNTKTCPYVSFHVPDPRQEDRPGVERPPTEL
Description: (§1) The assay was performed according to Meade et al. with minor modifications. An oxygen electrode chamber with integral stirring (Oxygraph System, Hansatech Instruments, King´s Lynn, U.K.) was calibrated daily to ambient temperature and air pressure. The assay buffer contained 0.1 M Tris-HCl buffer pH 7.4, 1 μM haematin, 2 mM phenol, 5 mM EDTA, 10 μM substrate (arachidonic acid or 2-AG) (final assay volume was 2 ml). After addition of (R)- or (S)-Flu-AM1 dissolved in ethanol (final assay concentration 1%), a baseline was established for 5 min before initiation of reaction by addition of 200 units ovine COX-1 or human recombinant COX-2. The change in oxygen consumption as a measurement of enzyme activity was monitored for approximately 5 min.

human recombinant COX-2 = biological target: T2, human recombinant COX-2 (Homo sapiens, UniProt P35354); assay: COX-2 inhibition, oxygraphic method (oxygen electrode); assay type: biochemical; conditions: no preincubation phase, approximate, from initial velocities
T2 construct: purchased Cayman Chemical Co. 60122
T2 sequence (P35354 18-604): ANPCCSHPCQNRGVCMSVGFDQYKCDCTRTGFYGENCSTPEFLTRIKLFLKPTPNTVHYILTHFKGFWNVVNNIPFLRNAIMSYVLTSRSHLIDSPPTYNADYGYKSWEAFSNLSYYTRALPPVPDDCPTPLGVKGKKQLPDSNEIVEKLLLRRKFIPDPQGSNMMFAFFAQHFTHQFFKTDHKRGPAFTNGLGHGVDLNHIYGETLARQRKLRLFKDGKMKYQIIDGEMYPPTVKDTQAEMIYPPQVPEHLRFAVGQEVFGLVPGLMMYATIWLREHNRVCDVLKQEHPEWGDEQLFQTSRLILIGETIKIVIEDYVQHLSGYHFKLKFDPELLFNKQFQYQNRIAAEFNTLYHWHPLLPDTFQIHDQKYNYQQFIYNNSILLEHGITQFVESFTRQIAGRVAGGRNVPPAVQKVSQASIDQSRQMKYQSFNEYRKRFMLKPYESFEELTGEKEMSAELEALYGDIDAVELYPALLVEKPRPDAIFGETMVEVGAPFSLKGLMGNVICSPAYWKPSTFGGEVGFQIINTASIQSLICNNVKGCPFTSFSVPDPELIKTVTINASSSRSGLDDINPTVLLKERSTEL
Description: as §1

mouse brain FAAH = biological target: T3, mouse brain FAAH (Mus musculus, UniProt O08914); assay: FAAH assay, [3H]AEA hydrolysis in mouse brain homogenates; assay type: biochemical; conditions: 0.5 μM [3H]AEA; read-out: IC50 inhibition of [3H]AEA hydrolysis in mouse brain homogenates
T3 construct: Brains from male B6CBAF1/J mice, stored at -80°C, were thawed, weighed and homogenized in cold buffer; from tissue; host or cells: brain of male B6CBAF1/J mice (washed membrane pellet homogenate)
T3 sequence (O08914 1-579): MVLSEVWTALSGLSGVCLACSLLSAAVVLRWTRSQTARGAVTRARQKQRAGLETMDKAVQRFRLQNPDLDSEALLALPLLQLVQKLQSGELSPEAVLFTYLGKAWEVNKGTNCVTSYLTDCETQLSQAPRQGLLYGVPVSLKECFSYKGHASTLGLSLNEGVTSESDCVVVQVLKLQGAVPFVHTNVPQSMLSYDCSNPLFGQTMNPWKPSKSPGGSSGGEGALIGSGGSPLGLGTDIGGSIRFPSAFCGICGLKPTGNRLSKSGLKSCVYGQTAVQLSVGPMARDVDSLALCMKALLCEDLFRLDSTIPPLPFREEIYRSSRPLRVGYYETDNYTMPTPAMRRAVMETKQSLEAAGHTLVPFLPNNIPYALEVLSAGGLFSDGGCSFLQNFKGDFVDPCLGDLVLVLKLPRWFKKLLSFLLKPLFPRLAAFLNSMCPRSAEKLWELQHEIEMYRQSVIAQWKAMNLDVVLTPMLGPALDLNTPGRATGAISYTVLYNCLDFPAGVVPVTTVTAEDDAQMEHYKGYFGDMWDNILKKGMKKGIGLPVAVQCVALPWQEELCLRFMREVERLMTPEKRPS
Description: Brains from male B6CBAF1/J mice, stored at -80°C, were thawed, weighed and homogenized in cold buffer (20 mM HEPES, 1 mM MgCl2 pH 7.0). Homogenates were centrifuged (35,000 g at 4°C for 20 min) before the pellet was resuspended in cold homogenization buffer. Centrifugation and resuspension was repeated twice. The suspension was incubated at 37°C for 15 min to degrade any endogenous substrate able to interfere with the FAAH assay. After centrifugation (35,000 g at 4°C for 20 min), the pellet was resuspended in cold buffer (50 mM Tris-HCl, 1mM EDTA, 3 mM MgCl2, pH 7.4). The protein concentration was determined according to the Bradford assay after which the samples were frozen in aliquots at -80°C. Ethical permission for the animal experiments was obtained from the local animal research ethical committee (Umeå Ethical Committee for Animal Research, Umeå, Sweden). FAAH was assayed using the method of Boldrup et al., whereby homogenates (0.3 μg protein / assay) in assay buffer (10 mM Tris-HCl, 1mM EDTA, pH 7.4), test compounds and substrate ([^3H]AEA in 10 mM Tris-HCl, 1mM EDTA, pH 7.4 containing 10 mg/ml fatty acid-free bovine serum, assay concentration 0.5 μM unless otherwise stated) were incubated for 10 min at 37°C. Thereafter, 400 μL activated charcoal (80 μL activated charcoal + 320 μL 0.5 M HCl) was added and the samples were placed on ice and centrifuged at 2500 rpm for 10 min. Aliquots (200 μL) of the supernatant was analyzed for tritium content by liquid scintillation spectroscopy with quench correction.

rat brain FAAH [1] = biological target: T4, rat brain FAAH (Rattus norvegicus, UniProt P97612); assay: [3H]AEA hydrolysis in rat brain homogenates; assay type: biochemical; conditions: current authors, unpublished data; read-out: IC50 inhibition of [3H]AEA hydrolysis in rat brain homogenates
T4 construct: the racemate was studied in rat brain homogenates, whereas mouse brain homogenates were used here; from tissue; host or cells: rat brain homogenates
T4 sequence (P97612 1-579): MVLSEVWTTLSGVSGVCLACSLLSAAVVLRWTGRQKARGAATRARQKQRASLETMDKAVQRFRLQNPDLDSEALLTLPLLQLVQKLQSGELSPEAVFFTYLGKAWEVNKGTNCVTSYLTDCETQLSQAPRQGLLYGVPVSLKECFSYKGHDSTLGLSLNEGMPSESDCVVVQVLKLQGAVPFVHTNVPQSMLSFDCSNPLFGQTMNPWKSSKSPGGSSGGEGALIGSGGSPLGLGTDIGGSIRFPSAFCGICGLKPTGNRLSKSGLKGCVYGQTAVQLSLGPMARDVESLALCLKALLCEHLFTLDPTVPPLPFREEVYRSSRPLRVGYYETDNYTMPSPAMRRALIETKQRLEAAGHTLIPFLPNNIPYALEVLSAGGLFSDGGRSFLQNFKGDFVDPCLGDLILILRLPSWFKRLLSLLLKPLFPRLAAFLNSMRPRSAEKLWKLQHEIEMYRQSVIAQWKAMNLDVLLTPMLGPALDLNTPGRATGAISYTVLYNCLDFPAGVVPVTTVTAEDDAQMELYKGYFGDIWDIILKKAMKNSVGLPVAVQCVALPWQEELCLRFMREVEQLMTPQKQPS

rat brain FAAH [2] = biological target: T4, rat brain FAAH; conditions: racemate; read-out: IC50 FAAH, rat brain homogenates; cited from earlier work
RAW 264.7 cells [3] = assay: Lipid profile (prostaglandins, 2-AG, AEA and related lipids) of RAW 264.7 cell extracts, UPLC-MS/MS; assay type: cell-based, mouse; conditions: 30 min; for Effect on levels of AEA and related N-acylethanolamines in the cells: LPS + INF-γ-treated, ionomycin (5 μM) treated cells, flurbiprofen and (R)-Flu-AM1 10 μM
RAW 264.7 cells [4] = assay: [3H]AEA hydrolysis by intact RAW 264.7 cells; assay type: cell-based, mouse; conditions: LPS + INF-γ-treated cells; 100 nM [3H]AEA, 60 min; URB597 1 μM, flurbiprofen and (R)-Flu-AM1 10 μM
[5] = LPS + IFNγ 24 h, URB597 1 μM, flurbiprofen 10 μM, (R)-Flu-AM1 10 μM, median (range), n = 5–6
[6] = Treatment None (unstimulated), URB597 1 μM, flurbiprofen 10 μM, (R)-Flu-AM1 10 μM, median (range), n = 5–6

## Cc1cccnc1NC(=O)[C@@H](C)c1ccc(-c2ccccc2)c(F)c1 [(S)-Flu-AM1]
Ovine COX-1
  IC50: 3000 nM and ~3000 nM
Human recombinant COX-2; 10 μM 2-AG, read-out: IC50 COX-2 (2-AG)
  IC50: 700 nM and ~700 nM
Human recombinant COX-2; 10 μM arachidonic acid, read-out: IC50 COX-2 (arachidonic acid)
  IC50: 10000 nM and ~10000 nM
Mouse brain FAAH
  IC50: 11000 nM
Rat brain FAAH [1]
  IC50: 990 nM

## Cc1cccnc1NC(=O)C(C)c1ccc(-c2ccccc2)c(F)c1 (stereo not drawn) [Flu-AM1, 2-(2-fluorobiphenyl-4-yl)-N-(3-methylpyridin-2-yl)propanamide]
Rat brain FAAH [2]
  IC50: 440 nM

## CC(C(=O)O)c1ccc(-c2ccccc2)c(F)c1 (stereo not drawn) [Flurbiprofen, flurbiprofen, reference compound]
RAW 264.7 cells [3]; 10 μM
  Effect on basal and LPS + INF-γ-stimulated PGD2 and PGE2 production: blocked
RAW 264.7 cells [3]; 10 μM, unstimulated and LPS + INF-γ-treated
  Effect on levels of 2-AG in the cell extracts: not affected
RAW 264.7 cells [3]; URB597 1 μM
  Effect on levels of AEA and related N-acylethanolamines in the cells: did not affect
RAW 264.7 cells [4]
  Effect on hydrolysis of exogenous [3H]AEA by intact cells: would not be expected, and this was found to be the case

## NC(=O)c1cccc(-c2cccc(OC(=O)NC3CCCCC3)c2)c1 [URB597, cyclohexylcarbamic acid 3′-carbamoylbiphenyl-3-yl ester, reference compound]
RAW 264.7 cells [3]; [5]
  2-AG level relative to vehicle None median: 0.90 (0.70–1.11)
  9,10,13-TriHOME level relative to vehicle None median: 1.08 (0.68–1.89)
  9,10-DiHOME level relative to vehicle None median: 0.76 (0.69–1.05)
  9,12,13-TriHOME level relative to vehicle None median: 1.08 (0.66–1.79)
  9-HODE level relative to vehicle None median: 1.11 (0.49–1.20)
  11-HETE level relative to vehicle None median: 13.0 (4.82–25.7)
  12(13)-EpOME level relative to vehicle None median: 1.24 (0.92–1.72)
  12(S)-HEPE level relative to vehicle None median: 0.59 (0.28–1.36)
  12,13-DiHOME level relative to vehicle None median: 0.93 (0.85–1.26)
  12-HETE level relative to vehicle None median: 0.61 (0.41–0.96)
  13-HODE level relative to vehicle None median: 1.16 (0.49–1.43)
  13-oxo-ODE level relative to vehicle None median: 1.52 (0.34–2.87)
  15-HETE level relative to vehicle None median: 4.58 (0.97–5.29)
  AEA level relative to vehicle None median: 1.39 (1.26–1.58)
  LEA level relative to vehicle None median: 1.06 (0.79–1.87)
  OEA level relative to vehicle None median: 0.97 (0.74–1.96)
  PEA level relative to vehicle None median: 0.97 (0.88–1.31)
  PGD2 level relative to vehicle None median: 35.1 (19.4–117)
  PGE2 level relative to vehicle None median: 10.6 (7.33–33.5)
  SEA level relative to vehicle None median: 0.79 (0.67–1.28)
RAW 264.7 cells [3]; URB597 1 μM
  Effect on levels of AEA and related N-acylethanolamines in the cells: modest effects
RAW 264.7 cells [3]; [6]
  2-AG level relative to vehicle None median: 1.10 (0.61–1.47)
  9,10,13-TriHOME level relative to vehicle None median: 1.13 (0.44–2.51)
  9,10-DiHOME level relative to vehicle None median: 1.10 (0.65–1.32)
  9,12,13-TriHOME level relative to vehicle None median: 1.23 (0.51–2.53)
  9-HODE level relative to vehicle None median: 1.14 (0.72–2.07)
  11-HETE level relative to vehicle None median: 1.12 (0–2.69)
  12(13)-EpOME level relative to vehicle None median: 1.07 (0.66–1.66)
  12(S)-HEPE level relative to vehicle None median: 0.59 (0–0.85)
  12,13-DiHOME level relative to vehicle None median: 1.15 (1.04–1.39)
  12-HETE level relative to vehicle None median: 0.94 (0.33–1.48)
  13-HODE level relative to vehicle None median: 1.42 (0.79–1.75)
  13-oxo-ODE level relative to vehicle None median: 1.40 (0.76–2.27)
  15-HETE level relative to vehicle None median: 1.02 (0.25–2.16)
  AEA level relative to vehicle None median: 0.85 (0.45–1.18)
  LEA level relative to vehicle None median: 0.79 (0.68–1.15)
  PEA level relative to vehicle None median: 1.07 (0.87–1.28)
  PGD2 level relative to vehicle None median: 1.37 (0.79–2.48)
  PGE2 level relative to vehicle None median: 0.98 (0.49–1.81)
  SEA level relative to vehicle None median: 0.80 (0.65–1.27)
RAW 264.7 cells [4]
  Effect on hydrolysis of exogenous [3H]AEA by intact cells: completely blocked
